This note sets out measurements from ChEMBL document CHEMBL5360627, “Total Synthesis of Kuwanons A and B and Discovery of Their Antibacterial Mechanism” (2023).

For experiment [1], the system named is Staphylococcus aureus. The experiment is described as follows: Antimicrobial activity against Staphylococcus aureus ATCC 29213 assessed as reduction in bacterial growth incubated for 24 hrs by Mueller-Hinton broth based assay. It is filed as functional.
Experiment [2] relates to Bacillus subtilis. In words: Antibacterial activity against Bacillus subtilis ATCC 6633 assessed as reduction in bacterial growth incubated for 24 hrs by Mueller-Hinton broth based assay. It is filed as functional.
The test system of experiment [3] is Staphylococcus aureus. In words: Bactericidal activity against Staphylococcus aureus ATCC 29213 assessed as reduction in bacterial growth at 8 times MIC measured at 8 hrs by time-kill assay. It is filed as functional.
The subject of experiment [4] is Staphylococcus epidermidis. In words: Antibacterial activity against Staphylococcus epidermidis ATCC 14990 assessed as inhibition of bacterial growth incubated for 24 hrs by Mueller-Hinton broth based assay. It is filed as functional.
Experiment [5] concerns Enterococcus faecalis. The experiment is described as follows: Antibacterial activity against Enterococcus faecalis ATCC 29212 assessed as reduction in bacterial growth incubated for 24 hrs by Mueller-Hinton broth based assay. It is filed as functional.
Experiment [6] has as its system Staphylococcus aureus. In words: Bactericidal activity against Staphylococcus aureus ATCC 29213 assessed as reduction in bacterial growth at 8 microg/ml measured at 2 hrs by time-kill assay. It is filed as functional, organism-based. The following applies: dose 8.0 µg/ml.
The test system of experiment [7] is Staphylococcus aureus. The experiment is described as follows: Antibacterial activity against Staphylococcus aureus ATCC 29213 assessed as inhibition of bacterial growth incubated for 18 hrs by CLSI based microdilution method. It is filed as functional.
Experiment [8] has as its system Staphylococcus aureus. In words: Antibacterial activity against methicillin resistant-Staphylococcus aureus […] assessed as inhibition of bacterial growth incubated for 18 hrs by CLSI based microdilution method. It is filed as functional. (In general: Broth dilution looks for growth in wells or tubes with falling amounts of substance.)
The subject of experiment [9] is Staphylococcus aureus. In words: Bactericidal activity against Staphylococcus aureus ATCC 29213 assessed as inhibition of bacterial growth measured at 8 hrs by time-kill assay. It is filed as functional, organism-based.
Experiment [10] relates to Cell membrane. In words: Disruption of membrane integrity in Staphylococcus aureus ATCC 29213 assessed as increase in green fluorescence at 8 microg/ml incubated for 2 hrs by nuc-green dye based fluorescence microscopic analysis. It is filed as subcellular. The settings on record: dose 8.0 µg/ml.
Experiment [11] deals with Cell membrane. The experiment is described as follows: Induction of cell membrane disruption in Staphylococcus aureus ATCC 29213 assessed as appearance of wrinkled cell at 8 microg/ml incubated for 2 hrs by scanning electron microscopic analysis. It is filed as subcellular. The settings on record: dose 8.0 µg/ml.
In experiment [12] the test system is Cell membrane. In words: Induction of cell membrane disruption in Staphylococcus aureus ATCC 29213 assessed as appearance of round cell at 8 microg/ml incubated for 2 hrs by scanning electron microscopic analysis. It is filed as subcellular. The settings on record: dose 8.0 µg/ml.
The test system of experiment [13] is Staphylococcus aureus. The experiment is described as follows: Bactericidal activity against Staphylococcus aureus ATCC 29213 assessed as reduction in bacterial growth at 8 microg/ml measured immediately by time-kill assay. It is filed as functional, organism-based. The following applies: dose 8.0 µg/ml.
Experiment [14] deals with Enterococcus faecalis. The experiment is described as follows: Potency index, ratio of chloramphenicol MIC to test compound MIC for antibacterial activity against Enterococcus faecalis ATCC 29212 assessed as reduction in bacterial growth incubated for 24 hrs by Mueller-Hinton broth based assay. It is filed as functional.
The test system of experiment [15] is Cell membrane. In words: Disruption of membrane integrity in Staphylococcus aureus ATCC 29213 assessed as increase in red fluorescence at 8 microg/ml incubated for 2 hrs by EthD-III dye based fluorescence microscopic analysis. It is filed as subcellular. The following applies: dose 8.0 µg/ml.
Experiment [16] has as its system Staphylococcus aureus. The experiment is described as follows: Potency index, ratio of chloramphenicol MIC to test compound MIC for antimicrobial activity against Staphylococcus aureus ATCC 29213 assessed as reduction in bacterial growth incubated for 24 hrs by Mueller-Hinton broth based assay. It is filed as functional.
Experiment [17] concerns Bacillus subtilis. The experiment is described as follows: Potency index, ratio of chloramphenicol MIC to test compound MIC for antibacterial activity against Bacillus subtilis ATCC 6633 assessed as reduction in bacterial growth incubated for 24 hrs by Mueller-Hinton broth based assay. It is filed as functional.
The subject of experiment [18] is Staphylococcus aureus. In words: Bactericidal activity against Staphylococcus aureus ATCC 29213 assessed as reduction in bacterial growth at 0.5 to 8 times MIC measured at 24 hrs by time-kill assay. It is filed as functional, organism-based.
Experiment [19] relates to Cell membrane. The experiment is described as follows: Induction of cell membrane disruption in Staphylococcus aureus ATCC 29213 assessed as appearance of uneven cell at 8 microg/ml incubated for 2 hrs by scanning electron microscopic analysis. It is filed as subcellular. The following applies: dose 8.0 µg/ml.
The test system of experiment [20] is Cell membrane. The experiment is described as follows: Induction of cell membrane disruption in Staphylococcus aureus ATCC 29213 assessed as appearance of ruptured cell at 8 microg/ml incubated for 2 hrs by scanning electron microscopic analysis. It is filed as subcellular. The settings on record: dose 8.0 µg/ml.
In experiment [21] the test system is Cell membrane. In words: Induction of cell membrane disruption in Staphylococcus aureus ATCC 29213 assessed as increase in fluorescence intensity at 8 microg/ml incubated for 2 hrs by scanning electron microscopic analysis. It is filed as subcellular. The settings on record: dose 8.0 µg/ml.
In experiment [22] the test system is Staphylococcus epidermidis. In words: Potency index, ratio of chloramphenicol MIC to test compound MIC for antibacterial activity against Staphylococcus epidermidis ATCC 14990 assessed as inhibition of bacterial growth incubated for 24 hrs by Mueller-Hinton broth based assay. It is filed as functional.

Values after ≈ are worked out from the molar mass of the structure shown. Active and inactive are the calls of the source. The rule behind the calls is not given here.

What is called MIC is the least concentration at which growth counts as inhibited. `CC1(C)S[C@@H]2[C@H](NC(=O)[C@H](N)c3ccccc3)C(=O)N2[C@H]1C(=O)O` [AMPICILLIN]: the MIC turned out to be 0.5 µg/mL (≈ 1.43 µM) with Staphylococcus aureus [1], 8 µg/mL (≈ 22.9 µM) with Bacillus subtilis [2], 16 µg/mL (≈ 45.8 µM) in experiment [4] and 0.5 µg/mL (≈ 1.43 µM) with Enterococcus faecalis [5]. Also, in the experiment on Staphylococcus aureus [3], the Activity is recorded as 5 log10CFU/ml. For the same compound, the result in the experiment on Staphylococcus aureus [6] was inactive.

For the compound `O=C(N[C@H](CO)[C@H](O)c1ccc([N+](=O)[O-])cc1)C(Cl)Cl` [CHLORAMPHENICOL], the MIC with Staphylococcus aureus [1] was 16 µg/mL (≈ 49.5 µM); in the experiment with Bacillus subtilis [2] it was 8 µg/mL (≈ 24.8 µM); in experiment [4], 8 µg/mL (≈ 24.8 µM); in the experiment with Enterococcus faecalis [5], 8 µg/mL (≈ 24.8 µM).

For the compound `CC(C)=CCc1c(-c2ccc(O)c3c2OC(C)(C)C=C3)oc2cc(O)cc(O)c2c1=O` [KUWANON A], the MIC with Staphylococcus aureus [1] was 4 µg/mL (≈ 9.51 µM); with Bacillus subtilis [2] it was 4 µg/mL (≈ 9.51 µM); with Staphylococcus aureus [7], 8 µg/mL (≈ 19 µM); with Staphylococcus aureus [8] it was 8 µg/mL (≈ 19 µM); in experiment [4], 2 µg/mL (≈ 4.76 µM); with Enterococcus faecalis [5] it was 8 µg/mL (≈ 19 µM).

As to `CC(C)=CCc1c(-c2ccc3c(c2O)C=CC(C)(C)O3)oc2cc(O)cc(O)c2c1=O`, the MIC with Staphylococcus aureus [1] came out at 1 µg/mL (≈ 2.38 µM); with Bacillus subtilis [2], 1 µg/mL (≈ 2.38 µM); in the experiment with Staphylococcus aureus [7] it was 4 µg/mL (≈ 9.51 µM); with Staphylococcus aureus [8], 4 µg/mL (≈ 9.51 µM); in experiment [4], 1 µg/mL (≈ 2.38 µM); in the experiment on Enterococcus faecalis [5] it was 1 µg/mL (≈ 2.38 µM). Moreover, the Activity result is “Dose-Dependent Effect” in the experiment with Staphylococcus aureus [9] and 2 log10CFU/ml in the experiment on Staphylococcus aureus [3]. Also, the outcome with Cell membrane [10], in the experiment on Cell membrane [11], with Cell membrane [12], with Staphylococcus aureus [13], with Cell membrane [15] and in the experiment on Cell membrane [19] was Active. The result in the experiment on Cell membrane [20] and with Cell membrane [21] was Active. The Ratio (with Enterococcus faecalis [14]; with Staphylococcus aureus [16]; with Bacillus subtilis [17]; in [22]) was 8 each time. In addition, the outcome with Staphylococcus aureus [18] was inactive.
